Each structure is given as a SMILES string. pIC50: −log10 of the molar value.

For one test, the target named is T1, Glycogen phosphorylase, muscle form (Oryctolagus cuniculus, UniProt P00489).
T1 sequence (P00489 whole entry): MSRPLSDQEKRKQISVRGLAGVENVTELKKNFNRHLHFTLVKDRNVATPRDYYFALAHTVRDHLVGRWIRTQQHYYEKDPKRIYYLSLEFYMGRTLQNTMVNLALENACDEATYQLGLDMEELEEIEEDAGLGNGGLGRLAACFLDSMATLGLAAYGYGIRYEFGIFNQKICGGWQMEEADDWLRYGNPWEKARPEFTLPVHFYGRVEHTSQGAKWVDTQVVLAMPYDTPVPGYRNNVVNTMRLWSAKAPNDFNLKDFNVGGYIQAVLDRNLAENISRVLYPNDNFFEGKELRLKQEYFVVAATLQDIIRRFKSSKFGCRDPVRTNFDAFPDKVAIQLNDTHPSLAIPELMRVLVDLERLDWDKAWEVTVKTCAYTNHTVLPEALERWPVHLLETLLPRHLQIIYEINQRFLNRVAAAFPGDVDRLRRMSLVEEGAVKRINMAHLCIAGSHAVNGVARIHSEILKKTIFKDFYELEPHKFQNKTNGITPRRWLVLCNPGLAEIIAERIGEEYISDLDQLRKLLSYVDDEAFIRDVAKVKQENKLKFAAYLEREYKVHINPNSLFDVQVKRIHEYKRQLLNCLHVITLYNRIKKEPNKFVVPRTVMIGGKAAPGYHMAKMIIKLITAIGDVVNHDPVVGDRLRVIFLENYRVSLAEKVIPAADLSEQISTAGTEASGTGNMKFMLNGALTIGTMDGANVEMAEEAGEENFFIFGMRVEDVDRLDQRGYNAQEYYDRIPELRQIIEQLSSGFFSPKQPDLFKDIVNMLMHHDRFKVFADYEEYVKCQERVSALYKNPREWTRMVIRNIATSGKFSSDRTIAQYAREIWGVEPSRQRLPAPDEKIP
Description: Binding affinity to rabbit muscular GPb by NMR binding assay
A word on the pIC50: it is the IC50 on a negative log10 scale, so that one unit is a factor of ten. A higher pIC50 goes with a low IC50. In turn, `Cc1cn([C@@H]2O[C@H](CO)[C@@H](O)[C@H](O)[C@H]2O)c(=O)[nH]c1=O` gave a negative-log IC50 (pIC50) of 5.18.

Turning to `Nc1ccccc1C(=O)Nc1ccccc1Oc1ccc(C(=O)O)c(C(=O)O)c1`, the pIC50 was 6.05.

`O=C1NCC(O)NC12O[C@H](CO)[C@@H](O)[C@H](O)[C@H]2O` (stereo not given in full): the pIC50 was 4.22.

In turn, `O=C(O)c1ccccc1-n1cc(C(=O)O)c(=O)c2cc(Cc3c(F)cc(F)cc3Cl)c(Cl)cc21` showed a pIC50 of 7.62.

For `O=C(NC(=O)c1cc2ccccc2[nH]1)N[C@@H]1O[C@H](CO)[C@@H](O)[C@H](O)[C@H]1O`, the pIC50 is 5.40.

The target in another test is T1, Glycogen phosphorylase, muscle form. The experiment in a line: Binding affinity to rabbit muscular GPa by NMR binding assay.
Consider `Cc1cc(F)c(Sc2nccn2C)cc1C(=O)Nc1cccc(N)c1`, for which the pIC50 is 5.57.

In the case of `Cc1cc(F)c(Sc2nccn2C)cc1C(=O)Nc1cccc(C#N)c1`, the pIC50 is 5.00.

`O=C(CN1CCN(c2ccccc2)CC1)Nc1nccs1` had a pIC50 of 4.01.

In another test the target is T2, Glycogen phosphorylase, liver form (Homo sapiens, UniProt P06737).
T2 sequence (P06737 whole entry): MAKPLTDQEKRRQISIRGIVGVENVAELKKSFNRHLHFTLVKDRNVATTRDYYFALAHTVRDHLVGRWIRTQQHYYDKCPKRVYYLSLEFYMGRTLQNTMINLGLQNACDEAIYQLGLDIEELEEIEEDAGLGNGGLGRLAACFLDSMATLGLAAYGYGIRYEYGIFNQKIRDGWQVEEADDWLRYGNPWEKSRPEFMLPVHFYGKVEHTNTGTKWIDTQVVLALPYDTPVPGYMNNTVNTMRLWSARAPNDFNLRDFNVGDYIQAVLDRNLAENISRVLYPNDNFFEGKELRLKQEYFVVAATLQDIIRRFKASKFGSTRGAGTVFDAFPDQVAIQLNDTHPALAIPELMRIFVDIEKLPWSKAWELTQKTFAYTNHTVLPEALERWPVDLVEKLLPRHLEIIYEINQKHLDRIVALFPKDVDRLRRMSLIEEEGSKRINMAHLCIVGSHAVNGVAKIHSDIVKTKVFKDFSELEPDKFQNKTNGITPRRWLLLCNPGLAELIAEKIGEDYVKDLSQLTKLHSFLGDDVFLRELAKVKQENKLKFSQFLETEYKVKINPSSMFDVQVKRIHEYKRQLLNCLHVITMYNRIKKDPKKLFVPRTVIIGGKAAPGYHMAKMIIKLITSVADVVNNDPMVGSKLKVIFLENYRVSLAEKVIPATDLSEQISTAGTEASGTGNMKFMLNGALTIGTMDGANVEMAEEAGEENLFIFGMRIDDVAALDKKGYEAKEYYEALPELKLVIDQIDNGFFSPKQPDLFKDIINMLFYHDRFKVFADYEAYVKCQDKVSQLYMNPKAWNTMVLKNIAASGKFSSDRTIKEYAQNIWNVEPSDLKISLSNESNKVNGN
The experiment in a line: Binding affinity to human liver GPa by NMR binding assay.
In the case of `Nc1ccccc1C(=O)Nc1ccccc1Oc1ccc(C(=O)O)c(C(=O)O)c1`, the pIC50 was 5.89.

`COCCNC(=O)c1c[nH]c2ccc(Cl)cc12` showed a pIC50 of 4.90.
